# According to PMC10492809, “A Bischler-Napieralski and homo-Mannich sequence enables diversified syntheses of sarpagine alkaloids and analogues” (Nature Communications, 2023):
# Values joined by “and” are separate entries in the source; they are usually repeats but may differ in a detail not shown here. Equal values may be shown once. Read-outs that look alike come from different tables or passages of the source.
# Experiments:
# Assay type in all cases: cell-based
# MDA-MB-231 cells = assay: Cell death manner assay (MTT, co-incubation with cell death inhibitors); details: Fer-1 / NAC experiment; 15ai 10 μM, Fer-1 10 μM, NAC 5 mM, 72 h; single replicates
# Procedure: [The source words this procedure for another cell line and reports this cell line under the same test.] To investigate the mechanism of 15ai in cancer cell proliferation inhibition, the manners of cell death were analyzed. The cell apoptosis inhibitor Z-VAD-FMK (Z-VAD), cell necrosis inhibitor Necrostatin-1 (Necro-1), ferroptosis inhibitor Ferrostatin-1 (Fer-1), and ROS inhibitor N-acetylcysteine (NAC) were purchased and stored at −20 °C. A375 cells were seeded with a density of 5000 cells/100 µL/well into 96 well plates. After 12 h, 15ai was added at different concentrations. Following that 10 µM Z-VAD, 10 µM Nerco-1, 10 µM Fer-1, and 5 mM NAC were added and co-incubated with 15ai, respectively, for 72 h. Then, 20 µL MTT solution (5 mg/mL) was added and incubated at 37 °C for an additional 4 h. Then, the supernatant was discarded, and 200 μL DMSO was added to dissolve the precipitate. After 15 min, the absorbance (OD490) was read on a microplate reader (SpectraMax i3x, Austria). In all experiments, three replicate wells were used for each drug concentration. Each assay was performed at least three times.
# A375 = assay: MTT cell viability assay, A375
# Procedure: (§1) All cell lines were cultured at 37 °C with 5% CO2 in a humidified incubator. HeLa cells were grown in MEM (Gibco) supplemented with 10% fetal bovine serum (FBS, Hyclone) and 1% penicillin/streptomycin (Gibco). MIA PaCa-2, MDA-MB-231, A549, MCF-7, A375 and BEAS-2B cells were grown in DMEM (Gibco) supplemented with 10% FBS and 1% penicillin/streptomycin. CT26, and HCT116 cells were grown in RPMI-1640 supplemented with 10% FBS and 1% penicillin/streptomycin. All cell lines were purchased from the National Collection of Authenticated Cell Cultures (China).
# (§2) The antiproliferative activities of the prepared compounds against tested cell lines were evaluated using a standard (MTT)-based colorimetric assay. Cells were plated at a density of 3000 cells/well in 96-well plates and allowed to adhere overnight. Then cells were treated with varying concentrations of synthesized compounds for 72 h. At the end of treatment, 20 μL of thiazolyl blue tetrazolium bromide (MTT) solution (5 mg/mL) was added to each well. Cells were incubated for an additional 4 h at 37 °C and then the medium was removed and replaced with 200 μL of DMSO. The absorbance (OD490) was read on a microplate reader (SpectraMax i3x, Molecular Devices, US). In all experiments, three replicate wells were used for each drug concentration. Each assay was performed at least three times. The IC50 values were calculated by GraphPad Prism 9, which were the mean values derived from three independent experiments.
# HCT 116 = assay: MTT cell viability assay, HCT 116
# Procedure: as §1, §2
# [1] = MTT cytotoxicity towards normal cells, BEAS-2B; details: human
# Procedure: as §1, §2
# CT26 = assay: MTT cell viability assay, CT26
# Procedure: as §1, §2
# MDA-MB-231 = assay: MTT cell viability assay, MDA-MB-231
# Procedure: as §1, §2
# A549 = assay: MTT cell viability assay, A549
# Procedure: as §1, §2
# MIA PaCa-2 = assay: MTT cell viability assay, MIA PaCa-2
# Procedure: as §1, §2
# Hela = assay: MTT cell viability assay, Hela
# Procedure: as §1, §2
# cancer cell lines = assay: In vitro cancer cell assays (antiproliferation, cell line not given); details: result in words
# Procedure: as §1, §2
# MCF-7 = assay: MTT cell viability assay, MCF-7
# Procedure: as §1, §2
smiles,measurement,setting,value
"CC(=O)N[C@@H](CS)C(=O)O [NAC, N-acetylcysteine, reference compound]",Percentage of viability,MDA-MB-231 cells,108.212% and 96.8182% and 102.046%
"CC=C1CN2C3CC1C(C=O)C2Cc1c3n(C)c2ccccc12 (stereo not shown) [Na-methylvellosimine (5), Na-methylvellosimine]",IC50,"A375; Homo sapiens, A-375, 72 h, MTT, 72 h, mean of at least three independent experiments, read-out: IC50 A375",27.6 µM
same,IC50,"A375; Homo sapiens, A-375, source data sheet, single values of three experiments, read-out: MTT IC50 A375",29.2 µM
same,IC50,"A375; source data sheet, single values of three experiments, read-out: MTT IC50 A375",25.9 µM and 27.8 µM
same,IC50,"HCT 116; Homo sapiens, HCT-116, 72 h, MTT, 72 h, mean of at least three independent experiments, read-out: IC50 HCT 116",23.6 µM
same,IC50,"HCT 116; Homo sapiens, HCT-116, source data sheet, single values of three experiments, read-out: MTT IC50 HCT-116",25.2 µM
same,IC50,"HCT 116; source data sheet, single values of three experiments, read-out: MTT IC50 HCT-116",22.5 µM and 23 µM
same,IC50 at 72 h,"[1]; BEAS-2B lung epithelial cells (normal cells), source data sheet, single values of three experiments",> 100 µM
same,CC50 at 72 h,"[1]; BEAS-2B lung epithelial cells, MTT, 72 h, cytotoxicity towards normal cells, mean of at least three independent experiments",> 100 µM
same,IC50,"CT26; Mus musculus, CT26, 72 h, MTT, 72 h, mean of at least three independent experiments, read-out: IC50 CT26",21.4 µM
same,IC50,"CT26; Mus musculus, CT26, source data sheet, single values of three experiments, read-out: MTT IC50 CT-26",19.6 µM
same,IC50,"CT26; source data sheet, single values of three experiments, read-out: MTT IC50 CT-26",20.7 µM and 23.8 µM
same,IC50,"MDA-MB-231; Homo sapiens, MDA-MB-231, 72 h, MTT, 72 h, mean of at least three independent experiments, read-out: IC50 MDA-MB-231",20.7 µM
same,IC50,"MDA-MB-231; Homo sapiens, MDA-MB-231, source data sheet, single values of three experiments, read-out: MTT IC50 MDA-MB-231",20.4 µM
same,IC50,"MDA-MB-231; source data sheet, single values of three experiments, read-out: MTT IC50 MDA-MB-231",22.8 µM and 18.8 µM
same,IC50,"A549; Homo sapiens, A549, 72 h, MTT, 72 h, mean of at least three independent experiments, read-out: IC50 A549",20.9 µM
same,IC50,"A549; Homo sapiens, A549, source data sheet, single values of three experiments, read-out: MTT IC50 A549",23.1 µM
same,IC50,"A549; source data sheet, single values of three experiments, read-out: MTT IC50 A549",19 µM and 20.4 µM
same,IC50,"MIA PaCa-2; Homo sapiens, MIA PaCa-2, 72 h, MTT, 72 h, mean of at least three independent experiments, read-out: IC50 MIA PaCa-2",26.7 µM
same,IC50,"MIA PaCa-2; Homo sapiens, MIA PaCa-2, source data sheet, single values of three experiments, read-out: MTT IC50 MIA PaCa-2",29.2 µM
same,IC50,"MIA PaCa-2; source data sheet, single values of three experiments, read-out: MTT IC50 MIA PaCa-2",23.5 µM and 27.3 µM
same,IC50,"Hela; Homo sapiens, HeLa, 72 h, MTT, 72 h, mean of at least three independent experiments, read-out: IC50 Hela",22.3 µM
same,IC50,"Hela; Homo sapiens, HeLa, source data sheet, single values of three experiments, read-out: MTT IC50 Hela",24.5 µM
same,IC50,"Hela; source data sheet, single values of three experiments, read-out: MTT IC50 Hela",21.9 µM and 20.4 µM
same,antiproliferation activity in the in vitro cancer cell assays,cancer cell lines,moderate antiproliferation activity
same,IC50,"MCF-7; Homo sapiens, MCF7, 72 h, MTT, 72 h, mean of at least three independent experiments, read-out: IC50 MCF-7",41.8 µM
same,IC50,"MCF-7; Homo sapiens, MCF7, source data sheet, single values of three experiments, read-out: MTT IC50 MCF-7",44.7 µM
same,IC50,"MCF-7; source data sheet, single values of three experiments, read-out: MTT IC50 MCF-7",40.8 µM and 39.9 µM
